Data: ChEMBL document CHEMBL1201862, “PubChem BioAssay data set” (2004)
Activity calls are given as the source filed them.

Legend:
[1] = Shn3 3'UTR reporter signal decrease – cell-based, Clone20 osteoblasts, firefly luciferase, cherry-pick, set 2, Schnurri-3 inhibitor project, dose response (AID 720490); format: functional;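 also: actives lower the luminescence signal as inhibitors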
[2] = reduction of Shn3 3'UTR-driven luciferase in osteoblasts – cell-based, Clone20 osteoblasts, firefly luciferase, cherry-picked, dose response (AID 624132); format: functional;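 also: firefly luciferase luminescence from reporter carrying the Shn3 3'UTR in osteoblasts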
[3] = non-specific 3'UTR reporter inhibition in Clone20-Shn3RL – cell-based, Renilla luciferase, cherry-picked, counter-screen for Shn3 inhibitor project, dose response (AID 624133); format: functional
[4] = loss of viability in HepG2 cells – cell-based, CellTiter-Glo, cherry-picked, cytotoxicity control for Shn3 inhibitor project, dose response (AID 624134); format: functional
[5] = target: T1, Methionyl-tRNA synthetase, putative (Trypanosoma brucei brucei, UniProt Q38C91); format: functional, Trypanosoma brucei brucei strain 927/4 GUTat10.1
T1 sequence (Q38C91 whole entry): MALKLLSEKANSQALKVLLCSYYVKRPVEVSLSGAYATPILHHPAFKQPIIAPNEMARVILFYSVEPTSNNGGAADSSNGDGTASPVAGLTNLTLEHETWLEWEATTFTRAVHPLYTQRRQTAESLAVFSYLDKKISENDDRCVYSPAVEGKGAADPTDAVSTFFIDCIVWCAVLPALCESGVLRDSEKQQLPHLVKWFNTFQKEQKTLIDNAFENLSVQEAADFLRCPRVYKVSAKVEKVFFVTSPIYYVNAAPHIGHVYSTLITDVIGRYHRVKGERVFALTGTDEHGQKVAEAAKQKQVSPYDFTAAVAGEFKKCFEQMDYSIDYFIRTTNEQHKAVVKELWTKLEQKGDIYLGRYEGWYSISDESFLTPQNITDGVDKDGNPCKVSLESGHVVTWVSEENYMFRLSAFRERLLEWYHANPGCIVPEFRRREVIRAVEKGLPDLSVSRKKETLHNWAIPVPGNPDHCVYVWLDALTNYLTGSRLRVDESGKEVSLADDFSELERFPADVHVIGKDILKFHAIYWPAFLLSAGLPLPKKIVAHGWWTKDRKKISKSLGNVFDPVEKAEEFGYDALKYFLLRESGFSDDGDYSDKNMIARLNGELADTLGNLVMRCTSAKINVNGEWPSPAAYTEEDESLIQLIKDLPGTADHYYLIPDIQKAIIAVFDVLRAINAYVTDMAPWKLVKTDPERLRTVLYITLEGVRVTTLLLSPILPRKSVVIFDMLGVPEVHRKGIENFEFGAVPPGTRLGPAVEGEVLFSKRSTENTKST

[6] = target: T1, Methionyl-tRNA synthetase, putative; format: functional, Trypanosoma brucei brucei strain 927/4 GUTat10.1; remark: listed apart in the source
[7] = Counterscreen for inhibitors of Trypanosoma brucei methionyl tRNA synthetase (MetRS): Luminescence-based cell-based high throughput dose response assay to identify compounds that are cytotoxic to Jurkat human T lymphocyte cells.; format: functional
[8] = Late stage counterscreen for inhibitors of Trypanosoma brucei methionyl tRNA synthetase (MetRS): Luminescence-based cell-based high throughput dose response assay to identify compounds that are cytotoxic to Jurkat human T lymphocyte cells.; format: functional
[9] = Luminescence-based cell-based high throughput dose response assay to identify activators of the DAF-12 from the parasite S. stercoralis (ssDAF-12).; format: functional
[10] = target: Cytochrome P450 3A4 (Homo sapiens, UniProt P08684);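 also: CYP3A4 tested as one member of a cytochrome P450 panel screen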
Cytochrome P450 3A4, sequence (P08684 whole entry, the tested form may be a part): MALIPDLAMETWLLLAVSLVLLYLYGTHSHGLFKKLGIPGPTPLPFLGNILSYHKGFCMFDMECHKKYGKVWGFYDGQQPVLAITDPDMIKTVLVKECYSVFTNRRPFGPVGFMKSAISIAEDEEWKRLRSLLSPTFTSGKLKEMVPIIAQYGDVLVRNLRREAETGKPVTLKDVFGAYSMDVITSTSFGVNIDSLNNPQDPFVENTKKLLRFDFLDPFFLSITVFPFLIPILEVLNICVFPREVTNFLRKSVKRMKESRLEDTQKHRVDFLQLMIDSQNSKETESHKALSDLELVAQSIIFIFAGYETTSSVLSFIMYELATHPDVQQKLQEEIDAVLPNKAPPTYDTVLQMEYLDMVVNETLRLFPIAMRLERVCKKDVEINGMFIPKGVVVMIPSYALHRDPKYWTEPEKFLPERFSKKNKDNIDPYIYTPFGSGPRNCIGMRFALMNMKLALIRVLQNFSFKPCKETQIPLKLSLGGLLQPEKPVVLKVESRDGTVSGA

[11] = target: T2, Oxysterols receptor LXR-beta (Homo sapiens, UniProt P55055); format: functional, cell-based;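 also: Cell-based luminescence dose-response assay of agonist activity at LXR, run as a confirmatory counterscreen to a daf-12 agonist screen; agonist potency from rising luciferase signal of a Gal4-LXR reporter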
T2 sequence (P55055 whole entry): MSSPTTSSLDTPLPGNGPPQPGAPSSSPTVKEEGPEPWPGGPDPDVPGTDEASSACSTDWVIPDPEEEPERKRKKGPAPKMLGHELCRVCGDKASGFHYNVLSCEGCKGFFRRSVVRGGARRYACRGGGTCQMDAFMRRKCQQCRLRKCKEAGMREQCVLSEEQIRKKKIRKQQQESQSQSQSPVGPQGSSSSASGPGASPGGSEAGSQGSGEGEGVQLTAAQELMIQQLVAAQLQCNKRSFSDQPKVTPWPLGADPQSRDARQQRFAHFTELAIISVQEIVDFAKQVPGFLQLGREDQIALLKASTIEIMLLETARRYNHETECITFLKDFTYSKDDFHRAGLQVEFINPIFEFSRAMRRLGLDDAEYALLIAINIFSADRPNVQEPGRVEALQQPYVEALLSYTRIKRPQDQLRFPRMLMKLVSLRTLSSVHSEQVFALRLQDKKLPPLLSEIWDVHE

[12] = target: T2, Oxysterols receptor LXR-beta; experiment: LXR agonists, Gal4 luciferase reporter, dose response, counter-screen for ssDAF-12 agonist project, cell-based, luminescence, HEK293, S. stercoralis campaign (AID 720737); format: functional; settings: read-out: IC50 (the source's name)
[13] = cells
[14] = target: T3, Protein skinhead-1 (Caenorhabditis elegans, UniProt P34707); format: functional
T3 sequence (P34707 whole entry): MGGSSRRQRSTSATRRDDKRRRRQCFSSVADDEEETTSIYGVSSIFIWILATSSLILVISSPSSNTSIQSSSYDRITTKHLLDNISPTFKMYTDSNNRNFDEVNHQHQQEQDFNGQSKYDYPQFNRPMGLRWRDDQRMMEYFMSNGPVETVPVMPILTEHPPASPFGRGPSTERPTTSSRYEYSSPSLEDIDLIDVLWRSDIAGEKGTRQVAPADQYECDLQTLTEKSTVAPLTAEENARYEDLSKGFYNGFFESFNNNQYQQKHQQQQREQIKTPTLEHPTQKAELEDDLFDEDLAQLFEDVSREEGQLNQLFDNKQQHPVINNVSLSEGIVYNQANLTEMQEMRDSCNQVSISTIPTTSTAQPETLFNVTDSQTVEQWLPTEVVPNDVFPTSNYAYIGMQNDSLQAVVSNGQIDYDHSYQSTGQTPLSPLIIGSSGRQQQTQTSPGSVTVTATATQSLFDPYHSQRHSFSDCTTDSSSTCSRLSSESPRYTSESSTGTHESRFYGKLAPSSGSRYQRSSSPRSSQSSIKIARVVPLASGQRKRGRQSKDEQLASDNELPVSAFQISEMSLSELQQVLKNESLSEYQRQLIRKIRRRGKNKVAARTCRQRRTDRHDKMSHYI

[15] = decrease of insulin promoter-GFP reporter – imaging, high-content screening, mouse beta cells (AID 1628); format: functional; settings: MIN6
[16] = IC50 of Artemis nuclease activity blockers – biochemical, fluorescence intensity, dose response (AID 720701); format: functional;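 also: Artemis endonuclease enzyme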
[17] = MIN6 cell viability loss – mouse insulinoma, cytotoxicity control, dose response (AID 2122); format: functional;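 also: confirmatory high-throughput counterscreen run to flag cytotoxic compounds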
[18] = HEK-293T viability loss after treatment – luminescence, T-cell screen hits, cytotoxicity control for TCR NF-kB inhibitor project, dose response (AID 489026); format: functional, cell-based;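 also: cells exposed to compound about 14 hours before the viability readout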
[19] = blockers of HIV-1 ZM109 envelope-driven cell-cell fusion – HeLa effector, CEM target cells, luciferase, cherry-pick, dose response (AID 652058); format: functional, cell-based;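 also: luciferase signal from HIV-1 Env mediated cell-cell fusion of effector and target cells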
[20] = tested on: BJ; experiment: BJ-TERT-LT-ST fibroblast viability loss – cell-based, RAS-independent, luminescence, dose response (AID 1935); format: functional; settings: Homo sapiens;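 also: BJ fibroblasts immortalized with TERT plus LT and ST oncogenes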
[21] = HIV-1 AD8 envelope cell-cell fusion blockers – cherry-pick, dose response (AID 652062); format: functional, cell-based;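 also: luciferase signal from cell-cell fusion driven by HIV-1 clade B AD8 Env; potency is for inhibitors of fusion seen as a drop in luminescence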
[22] = viability loss in CEM21 cells – cell-based, CellTiter-Glo luminescence, cherry-picked, cytotoxicity control for viral fusion inhibitor project, dose response (AID 652042); format: functional;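 also: potency for signal decrease meaning cytotoxicity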
[23] = viability loss in HEK293 cells – cell-based, plate reader, cherry-picked samples, cytotoxicity control, dose response (AID 743446); format: functional
[24] = DRD fibroblast viability loss – cell-based, non-viral oncogenic, luminescence, dose response (AID 1934); format: functional; settings: Homo sapiens
[25] = target: Paired box protein Pax-8 (Homo sapiens, UniProt Q06710); experiment: PAX8 transcriptional activity inhibition in RMG-I – RMG-I cells, luciferase, cherry-pick, dose response (AID 687027); format: functional, cell-based;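 also: luciferase reporter driven by Pax8 target thyroperoxidase promoter measured by SteadyGlo luminescence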
Paired box protein Pax-8, sequence (Q06710 whole entry): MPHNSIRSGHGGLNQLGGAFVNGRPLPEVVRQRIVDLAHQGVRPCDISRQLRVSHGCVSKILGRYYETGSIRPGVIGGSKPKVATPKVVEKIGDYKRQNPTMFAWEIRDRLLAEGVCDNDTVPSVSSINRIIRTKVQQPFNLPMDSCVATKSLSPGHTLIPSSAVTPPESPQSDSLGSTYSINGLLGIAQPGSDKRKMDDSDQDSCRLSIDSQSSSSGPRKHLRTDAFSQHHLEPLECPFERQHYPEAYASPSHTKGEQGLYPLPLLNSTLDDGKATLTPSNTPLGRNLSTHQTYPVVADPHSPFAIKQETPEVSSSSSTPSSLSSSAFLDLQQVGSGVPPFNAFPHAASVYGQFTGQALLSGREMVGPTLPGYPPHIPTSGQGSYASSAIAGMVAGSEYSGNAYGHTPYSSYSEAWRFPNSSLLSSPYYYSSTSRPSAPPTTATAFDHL

[26] = general cell-killing toxicity readout – plate reader, dry powder samples, cytotoxicity control for PAX8 inhibitor project, dose response (AID 743021); format: functional, cell-based
[27] = Luminescence Cell-Based Dose Confirmation HTS to Identify Inhibitors of Platelet Dense Granule Release. [Related pubchem assays: 1663 (Primary HTS), 1678 (Summary of Project)]; format: functional
[28] = A549 cell cytotoxicity, dose response, cytotoxicity control, plate reader, cherry-pick, antagonist series (AID 743412); format: functional, cell-based
[29] = blockade of melanocortin 4 receptor signaling – cell-based, plate reader, cherry pick, counter-screen for LGR2 antagonist project, dose response (AID 743444); format: functional;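 also: transfected HEK 293 cells stimulated with alpha-MSH peptide; potency of inhibitors of the alpha-MSH evoked signal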
[30] = off-target signal loss in HeLa-CEM21 co-culture – HeLa F-luc CTL cells, cherry-picked, counter-screen for HIV-1 Env fusion inhibitor project, dose response (AID 652040); format: functional, cell-based;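 also: potency for signal decrease marking cytotoxic or nonspecific inhibition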
[31] = blockers of bursicon-stimulated LGR2 cAMP reporter – cell-based, HEK293, CRE-luciferase reporter, cherry pick, set 2, dose response (AID 743343); format: functional;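 also: transfected cells were stimulated with diluted bursicon conditioned medium after compound addition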
[32] = tested on: BJ; experiment: BJ-TERT fibroblast viability loss – cell-based, RAS-independent, luminescence, dose response (AID 1933); format: functional; settings: Homo sapiens
[33] = blockers of HIV-1 envelope-mediated cell-cell fusion – cherry-pick, dose response (AID 652057); format: functional, cell-based
[34] = toxicity toward HepG2 liver cells – cell-based, plate reader, cherry-pick, antagonist series, cytotoxicity control, dose response (AID 743416); format: functional
[35] = target: Luciferin 4-monooxygenase (Photinus pyralis, UniProt P08659); experiment: inhibition of purified Photinus pyralis luciferase – biochemical, luminescence, dose response (AID 1891)
Luciferin 4-monooxygenase, sequence (P08659 whole entry): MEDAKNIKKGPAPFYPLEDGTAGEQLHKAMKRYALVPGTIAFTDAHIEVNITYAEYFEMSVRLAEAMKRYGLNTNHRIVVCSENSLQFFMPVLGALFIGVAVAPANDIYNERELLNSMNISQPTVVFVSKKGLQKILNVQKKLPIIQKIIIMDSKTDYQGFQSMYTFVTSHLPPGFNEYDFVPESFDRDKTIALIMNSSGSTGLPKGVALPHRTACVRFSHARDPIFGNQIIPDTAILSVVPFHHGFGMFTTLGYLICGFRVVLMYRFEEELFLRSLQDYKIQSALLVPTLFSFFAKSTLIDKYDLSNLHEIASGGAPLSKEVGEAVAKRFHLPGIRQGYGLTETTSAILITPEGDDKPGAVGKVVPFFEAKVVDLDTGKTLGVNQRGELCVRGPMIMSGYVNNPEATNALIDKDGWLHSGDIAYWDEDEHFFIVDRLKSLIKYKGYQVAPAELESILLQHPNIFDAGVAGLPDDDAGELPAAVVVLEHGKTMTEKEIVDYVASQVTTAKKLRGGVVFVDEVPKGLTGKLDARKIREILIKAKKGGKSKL

[36] = tested on: BJ; experiment: cells; format: functional, cell-based; settings: Homo sapiens

Cn1c(=O)c2c(nc(NCc3ccco3)n2CCc2ccccc2)n(C)c1=O
AC50 [1]: 2.27 µM (active) | AC50 [2]: 2.34 µM (active) | AC50 [3]: 18.3 µM (active) | AC50 [4]: 50.9 µM (active)

O=C(NNC(=O)c1ccc(-n2cncn2)c([N+](=O)[O-])c1)c1ccc(Cl)cc1
IC50 [5]: 2.72 µM (active) | IC50 [6]: 4.43 µM (active) | IC50 [7]: 83.2 µM (inactive) | IC50 [8]: > 83.3 µM (inactive)

Fc1ccc(-c2cn3cc(C(F)(F)F)cc(Cl)c3n2)cc1
IC50 [9]: > 67.5 µM (inactive) | AC50 [10]: 14.1 µM (inconclusive) | EC50 [11]: > 67.5 µM (inactive) | EC50 [12]: > 67.5 µM (inactive) | EC50 [13]: > 67.5 µM (inactive) | IC50 [14]: > 100 µM (inactive)

COCCNc1nc(-n2nc(C)cc2C)nc2sc3c(c12)CCCC3
IC50 [15]: 2.54 µM (active) | IC50 [16]: 11.7 µM (active) | IC50 [17]: 2.1 µM (active)

COc1ccccc1C(=O)Nc1nc2ccccc2s1
IC50 [18]: > 80 µM (inactive) | AC50 [19]: 10.9 µM (active) | EC50 [20]: 15.8 µM (active) | AC50 [21]: 2.44 µM (active) | AC50 [22]: 13.7 µM (active) | AC50 [23]: 3.61 µM (active) | EC50 [24]: 5.93 µM (active) | AC50 [25]: 3.69 µM (active) | AC50 [26]: 10.5 µM (active) | EC50 [27]: 3.96 µM (active) | AC50 [28]: 3.04 µM (active) | AC50 [29]: 0.172 µM (active) | AC50 [30]: 2.59 µM (active) | AC50 [31]: 0.121 µM (active) | EC50 [32]: 8.4 µM (active) | AC50 [33]: 2.05 µM (active) | AC50 [34]: 3.64 µM (active) | EC50 [35]: 0.296 µM (active) | EC50 [36]: 5.6 µM (active)
